The target of test [1] is T1, interaction between GMPPNP-bound recombinant K-Ras4B G12C mutant protein and cRAF RAS-binding domain (cRAF-RBD) (Homo sapiens, UniProt P01116, G12C).
T1 construct: His-tag (N)
Kind of test: Inhibitory activity on interaction between KRAS G12C and cRAF (Alpha technology). The protocol:
Interaction between recombinant K-Ras4B G12C mutant protein (amino acids 1-169, SEQ ID NO:2) and cRAF RAS-binding domain (cRAF-RBD, amino acids 50-132, Jena Biosciences GmbH) was measured using Alpha technology (PerkinElmer Inc.).
Recombinant KRAS G12C protein with an N-terminal His-tag was expressed in E. coli and purified by affinity chromatography. To prepare GTP-bound form and GDP-bound form of KRAS G12C protein, 50 μM KRAS G12C protein was incubated with 1 mM GMPPNP (Guanosine-5′-[(β,γ)-imido]triphosphate, Tetralithium salt) (Jena Bioscience GmbH) and 1 mM GDP, respectively, in a loading buffer (20 mM Tris-HCl (pH 7.5), 50 mM NaCl, 1 mM DTT and 2.5 mM EDTA) for 1 hour on ice. After the incubation, MgCl2 was added to a final concentration of 10 mM, followed by incubation at room temperature for 30 minutes. The mixture was allowed to pass through a NAP-5 column to remove free nucleotides and purified, and the resultant nucleotide-bound KRAS G12C protein was used for compound evaluation.
For the measurement of the inhibitory activity of compounds on interaction between KRAS G12C and cRAF-RBD, GMPPNP-bound KRAS G12C protein was incubated with various concentrations of compound in a reaction buffer (20 mM Tris-HCl (pH 7.5), 100 mM NaCl, 1 mM MgCl2, 1 mM TCEP, 0.1% Tween 20) at 25° C. for 1 hour. After the incubation, recombinant cRAF-RBD and Alpha detection reagents were added and incubated at room temperature for 1.5 hours for binding. Interaction of KRAS G12C and cRAF-RBD was monitored by measuring Alpha signal. Inhibition % was calculated using the signal from the reaction without test compound (DMSO control) as 0% inhibition and the signal from the reaction using GDP-bound KRAS G12C in place of GMPPNP-bound KRAS G12C as 100% inhibition. IC50 values were calculated from dose titration curve using curve fitting by XLfit software (IDBS).

The subject of the next test is MIA PaCa-2 cells. Briefly: Growth inhibition activity on KRAS-G12C mutant cell line (CellTiter-Glo 3D). It is filed as cell-based, human. The following applies: MIA PaCa-2, 3-day culture with compound. Here is the method:
MIA PaCa-2 cells (given by Sumitomo Dainippon Pharma Co., Ltd.), which are a KRAS-G12C mutant human pancreas cancer cell line, were suspended in a 10% fetal bovine serum-containing RPMI1640 medium (manufactured by Fujifilm Wako Pure Chemical Corporation). The cell suspension was seeded into each well of a 384-well U bottom microplate and cultured in an incubator containing 5% CO2 gas at 37° C. for 1 day. The compounds obtained in the “Preparation of Compounds” section were used as test compounds and were dissolved in DMSO, respectively, and each test compound was diluted with DMSO to give a concentration 500 times the final concentration. The resultant solution of the test compound in DMSO was diluted with the medium used for suspending cells and added to each well of the cell-culture plate to give a DMSO final concentration of 0.2%, followed by culture in an incubator containing 5% CO2 gas at 37° C. for another 3 days. The cell count after 3-day culture in the presence of the test compound was measured using CellTiter-Glo 3D Reagent (manufactured by Promega Corporation). All wells were added with CellTiter-Glo 3D Reagent and mixed for 10 minutes. 30 minutes after mixing, luminescence was measured by a plate reader. The growth inhibition rate was calculated from the following equation, and the concentration of the test compound at which 50% inhibition was achieved (IC50 (nM)) was determined.
[formula] • T: the emission intensity in a well into which a test compound was added. • C: the emission intensity in a well into which a test compound was not added.

The mark [2] stands for this setting: GMPPNP-bound KRAS G12C incubated with compound 25° C. 1 hour, Table 2-1, read-out: IC50.
The mark [3] stands for this setting: Homo sapiens, MIA PaCa-2, 72 h, Table 3-1.
The mark [4] stands for this setting: GMPPNP-bound KRAS G12C incubated with compound 25° C. 1 hour, Table 2, read-out: IC50.

Structures are written as SMILES. Read-outs that look alike come from different tables or passages of the source.

T1 sequence (P01116 with tags, fused parts or gaps isoform P01116-2 G12C): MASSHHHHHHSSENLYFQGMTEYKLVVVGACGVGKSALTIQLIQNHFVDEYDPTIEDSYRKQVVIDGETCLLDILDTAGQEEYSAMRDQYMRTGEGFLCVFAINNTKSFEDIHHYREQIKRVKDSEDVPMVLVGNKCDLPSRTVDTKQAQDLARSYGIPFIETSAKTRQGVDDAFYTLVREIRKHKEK

Regarding `C[C@@H](O)[C@@H]1CCCN1C/C=C/C(=O)Nc1c(F)cc(C(=O)c2cc3c4c(cccn24)-c2c(C(F)(F)F)cc4c(ncn4C)c2N(C)CC3)cc1F` [Example 211, (E)-N-(4-(9,12-dimethyl-7-(trifluoromethyl)-9,12,13,14-tetrahydro-imidazo[4″,5″:5′,6′]benzo-[1′,2′:2,3]azocino[4,5,6-hi]indolizine-2-carbonyl)-2,6-difluorophenyl)-4-((S)-2-((R)-1-hydroxy-ethyl)pyrrolidin-1-yl)but-2-enamide], the IC50 was found to be 51.9 nM in test [1] (setting [2]) and 10.8 nM with MIA PaCa-2 cells (setting [3]).

With `Cn1cnc2c3c(c(C(F)(F)F)cc21)-c1cccn2c(C(=O)c4cc(F)c(NC(=O)/C=C/CNC56CCC(CC5)OC6)c(F)c4)cc(c12)CCO3` [Example 125], the IC50 in test [1] (setting [2]) stood at 3.75 nM; in the test with MIA PaCa-2 cells (setting [3]) it was 9.06 nM.

As to `COc1cc2c(ncn2C)c2c1-c1cccn3c(C(=O)c4cc(F)c(NC(=O)/C=C/CN[C@H]5CCOC5)c(F)c4)cc(c13)CCN2C` (single isomer, unassigned) [Example 159], the figures for the IC50 (in test [1] (setting [2]); in the test with MIA PaCa-2 cells (setting [3])) were 7.22 nM and 8.16 nM, respectively.

On to `COCCn1c(C)nc2c3c(c(OC)cc21)-c1cccn2c(C(=O)c4cc(F)c(NC(=O)/C=C/CNC5(C)CC5)c(F)c4)cc(c12)CCN3C` (single isomer, unassigned) [Example 200, (E)-N-(2,6-difluoro-4-(7-methoxy-9-(2-methoxyethyl)-10,12-dimethyl-9,12,13,14-tetrahydroimidazo[4″,5″:5′,6′]benzo[1′,2′:2,3]azocino[4,5,6-hi]indolizine-2-carbonyl)phenyl)-4-((1-methylcyclopropyl)amino)but-2-enamide], for which the IC50 in test [1] (setting [2]) is 13.7 nM; with MIA PaCa-2 cells (setting [3]), 4.62 nM.

`Cc1cc2c(nc(C)n2C)c2c1-c1cccc3c(C(=O)c4cc(F)c(NC(=O)/C=C/CN[C@H]5C[C@@H]6CC[C@H]5O6)c(F)c4)cn(c13)CCN2C` (racemic) [Example 135]: the IC50 in test [1] (IC50, GMPPNP-bound KRAS G12C incubated with compound 25° C. 1 hour, Table 2-1) was determined as 11 nM; with MIA PaCa-2 cells (setting [3]) it was 28.9 nM.

As for `Cn1cnc2c3c(c(C(F)(F)F)cc21)-c1cccn2c(C(=O)c4cc(F)c(NC(=O)/C=C/CN5CC6COC(C6)C5)c(F)c4)cc(c12)CCO3` (centres unmarked) [Example 228, (E)-4-(6-oxa-3-azabicyclo-[3.2.1]octan-3-yl)-N-(2,6-difluoro-4-(9-methyl-7-(trifluoromethyl)-13,14-dihydro-9H-imidazo-[4″,5″:5′,6′]benzo[1′,2′: 2,3]oxocino[4,5,6-hi]-indolizine-2-carbonyl)-phenyl)but-2-enamide], the values for the IC50 (in test [1] (setting [2]); with MIA PaCa-2 cells (setting [3])) were 32.5 nM and 35.8 nM, respectively.

Regarding `CC1(NC/C=C/C(=O)Nc2c(F)cc(C(=O)c3cc4c5c(cccn35)-c3c(cc(N5CCOC5=O)cc3C(F)(F)F)OCC4)cc2F)CC1` [Example 232, (E)-N-(2,6-difluoro-4-(7-(2-oxooxazolidin-3-yl)-9-(trifluoromethyl)-3.4-dihydrobenzo[2,3]oxo-cino-[4,5,6-hi]indolizine-1-carbonyl)phenyl)-4-((1-methylcyclopropyl)amino)-but-2-enamide], the IC50 in test [1] (setting [2]) was 49.7 nM; in the test on MIA PaCa-2 cells (setting [3]), 18 nM.

Turning to `CN1CCc2cc(C(=O)c3cc(F)c(NC(=O)/C=C/CNC4(C)CC4)c(F)c3)n3cccc(c23)-c2c(C(F)(F)F)cc3[nH]cnc3c21` (atropisomer, axis not shown) [Example 239, (E)-N-(2,6-difluoro-4-(12-methyl-7-(trifluorometh-yl)-9,12,13,14-tetrahydro-imidazo[4″,5″:5′,6′]benzo-[1′,2′:2,3]azocino[4,5,6-hi]indolizine-2-carbonyl)-phenyl)-4-((1-methyl-cyclopropyl)amino)but-2-enamide], the IC50 in test [1] (setting [2]) was found to be 18.2 nM; in the test with MIA PaCa-2 cells (setting [3]) it was 9.69 nM.

For the molecule `CC1Cc2cc(C(=O)c3cc(F)c(NC(=O)/C=C/CNC4(C)COC4)c(F)c3)n3cccc(c23)-c2c(C(F)(F)F)cc3c(ncn3C)c2O1` (single isomer, unassigned) [Example 130-2, (E)-N-(4-(9,13-dimethyl-7-(trifluoromethyl)-13,14-dihydro-9H-imidazo[4″,5″:5′,6′]benzo[1′,2′:2,3]oxocino[4,5,6-hi]indolizine-2-carbonyl)-2,6-difluorophenyl)-4-((3-methyloxetan-3-yl)amino)but-2-enamide], the IC50 in test [1] (setting [2]) turned out to be 3760 nM; in the test with MIA PaCa-2 cells (Table 3-1) it was 3410 nM.

Take `CCNC/C=C/C(=O)Nc1c(F)cc(C(=O)c2cc3c4c(cccn24)-c2c(C(F)(F)F)cc4c(ncn4C)c2N(C)CC3)cc1F` [Example 111, (E)-N-(4-(9,12-dimethyl-7-(trifluoromethyl)-9,12,13,14-tetrahydro-imidazo[4″,5″:5′,6′]benzo-[1′,2′:2,3]azocino[4,5,6-hi]indolizine-2-carbonyl)-2,6-difluorophenyl)-4-(ethylamino)but-2-enamide]: the IC50 worked out at 31.3 nM in test [1] (setting [2]) and 8.95 nM with MIA PaCa-2 cells (setting [3]).

Regarding `CO[C@H]1CC[C@H](NC/C=C/C(=O)Nc2ccc(C(=O)c3cc4c5c(cccn35)-c3c(C(F)(F)F)cc5c(nc(C)n5C)c3OCC4)cc2)CC1` [Example 37, (E)-N-(4-(9,10-dimethyl-7-(trifluoromethyl)-13,14-dihydro-9H-imidazo[4″,5″:5′,6′]benzo[1′,2′:2,3]oxocino[4,5,6-hi]indolizine-2-carbonyl)phenyl)-4-(((1,4r)-4-methoxycyclohexyl)amino)but-2-enamide], the IC50 is 40 nM in test [1] (setting [4]) and 28 nM in the test on MIA PaCa-2 cells (Homo sapiens, MIA PaCa-2, 72 h, Table 3).

`CC(=O)NC[C@@H]1CCN1C/C=C/C(=O)Nc1c(F)cc(C(=O)c2cc3c4c(cccn24)-c2c(C(F)(F)F)cc4c(ncn4C)c2OCC3)cc1F` [Example 192, (S,E)-4-(2-(acetamido-methyl)azetidin-1-yl)-N-(2,6-difluoro-4-(9-meth-yl-7-(trifluoromethyl)-13,14-dihydro-9H-imidazo[4″,5″:5′,6′]benzo-[1′,2′:2,3]oxocino[4,5,6-hi]indolizine-2-carbonyl)-phenyl)but-2-enamide]: the IC50 came out at 91.5 nM in test [1] (setting [2]) and 24.3 nM in the test with MIA PaCa-2 cells (setting [3]).

`Cc1nc2c3c(c(C(F)(F)F)cc2n1C)-c1cccn2c(C(=O)c4cc(F)c(NC(=O)/C=C/CNC5(CF)COC5)c(F)c4)cc(c12)CCO3` [Example 50, (E)-N-(4-(9,10-dimethyl-7-(trifluoromethyl)-13,14-dihydro-9H-imidazo[4″,5″:5′,6′]benzo[1′,2′:2,3]oxocino[4,5,6-hi]indolizine-2-carbonyl)-2,6-difluorophenyl)-4-((3-(fluoromethyl)oxetan-3-yl)amino)but-2-enamide]: in test [1] (setting [4]), the IC50 worked out at 780 nM.

For the molecule `C=C1Cc2cc(C(=O)c3cc(F)c(NC(=O)/C=C/CN[C@H]4CC[C@H](OC)CC4)c(F)c3)n3cccc(c23)-c2c(C)cc3c(nc(C)n3C)c21` [Example 48, (E)-N-(2,6-difluoro-4-(2,3,5-trimethyl-13-methylene-12,13-dihydro-3H-imidazo[4″,5″:5′,6′]benzo[1′,2′:6,7]cyclohepta[1,2,3-hi]indolizine-10-carbonyl)phenyl)-4-(((1r,4r)-4-methoxycyclohexyl)amino)but-2-enamide], in test [1] (setting [4]), the IC50 was determined as 93 nM.

The record behind these values is patent US20240262842A1, “SMALL MOLECULE INHIBITORS OF KRAS G12C MUTANT” (Merck Sharp & Dohme LLC, priority 2021, published 2024).
